Laboratory results: US20240109877A1, “PYRIMIDINES FOR DEGRADING BRUTON'S TYROSINE KINASE” (AbbVie Inc., priority 2022, published 2024)

Test system: TCL1-driven CLL bearing BTK^C481S mutation
Test: TCL1-driven CLL bearing BTK C481S mutation in C57BL/6 mice, circulating leukemia burden
Type: in vivo, mouse
Settings: once daily (QD) for 19 days
Description: EIA-TCL1 CLL transgenic mice (Crogen Pharmaceuticals LLC) were crossed with BTK^C481S knock-in mice (AbbVie) to generate Eμ-TCL1 transgenic mice carrying the BTK^C481S mutation. The leukemic splenocytes from these BTK^C481S Eμ-TCL1 transgenic mice (Passage 1) were transplanted intravenously into C57BL/6 mice, leading to CLL development in the peripheral blood and spleen. When circulating CLL burden (CD5+CD19+ cells as described below) in the recipient mice reached over 90%, their splenocytes (Passage 2) containing high CLL burden were cryopreserved and used for CLL efficacy studies. […]
To determine the absolute/total leukocyte numbers, complete blood counts were determined for each mouse using the Genesis™ veterinary hematology analyzer (Oxford Science Inc.).
Cells isolated from murine peripheral blood mononuclear cells (PMBCs) were collected to determine antigen expression. […] Cells were gated on CD45+, and thereafter the percentage of cells that were CD5+CD19+ from that subset was calculated. […]
Whole blood was collected weekly post tumor implantation via submandibular cheek bleeding. Circulating leukemic burden was calculated by multiplying absolute/total leukocyte count with the percentage of the leukocytes have the immunophenotype CD19^+CD5^+. […]

Cc1cc(-c2cc(Nc3ccc(N4CCN(CCc5ccc(N6CCC(=O)NC6=O)cc5)C[C@@H]4C)cn3)ncn2)ccc1[C@@H](C)NC(=O)c1nc(C(C)(C)C)no1 [Example 1, 3-tert-butyl-N-[(1R)-1-{4-[6-({5-[(2S)-4-{2-[4-(2,4-dioxo-1,3-diazinan-1-yl)phenyl]ethyl}-2-methylpiperazin-1-yl]pyridin-2-yl}amino)pyrimidin-4-yl]-2-methylphenyl}ethyl]-1,2,4-oxadiazole-5-carboxamide] was tested, and the “circulating leukemia burden (CD19+CD5+ CLL cells per μL)” value (Dosage 1-4, dose-dependent manner, FIG. 1) was “controlled circulating leukemia burden” and the “CLL burden control (no increase from the initial tumor burden)” value (at Dosage 3 and Dosage 4) was “Complete CLL burden control”.
